Data set [1] concerns peripheral blood mononuclear leukocytes (PBML). In words: PBML protein synthesis ([3H]-leucine). The format is cell-based. The following applies: Homo sapiens, Leukocyte, 48 hr. An excerpt: (§1) PBML were obtained from the peripheral blood of healthy volunteers. Blood was submitted to gradient centrifugation with Lympholyte-Poly media (Cedarlane, Hornby, Canada). The layer containing the mononuclear leukocytes was collected and the cells washed three times in PBS. Cells were then suspended in RPMI (Gibco, Burlington, Canada) supplemented with 10% FBS (Hyclone, Logan USA). Viability was greater than 99% as determined by trypan blue exclusion.
(§2) PBML were resuspended at 2×10^6 cells/ml. 100 μl of PBML (2×10^5 cells) were incubated in a 96-well microtiter plate for 48 hr in the presence or absence of compound. Cells were quiescent or stimulated with concanavalin A (con A; T-cells) or pokeweed mitogen (PWM; B-cells). After incubation, cells were treated with MTT (cytotoxicity) or pulsed with 1 μCi of [^3H]-thymidine (DNA synthesis), [^3H]-uridine (RNA synthesis), or [^3H]-leucine (protein synthesis) for 6 hr. Plates were harvested on a Tomteck and counted on a Microbeta β-counter.

Data set [2] has the same test system. Briefly: PBML RNA synthesis ([3H]-uridine). The format is cell-based. The conditions noted are these: Homo sapiens, Leukocyte, 48 hr.
From the text: as §1, §2

In data set [3] the test system is P815 murine mastocytoma cell. In words: MTT cytotoxicity on P815. The format is cell-based. The conditions noted are these: Mus musculus. How it is done:
(§3) This assay was performed to determine the effect of compounds of the present invention on cell cytotoxicity. Cells were incubated in presence or absence of compounds in their respective conditioned media. After 24 hr or 72 hr incubation, 50 μl of 3-(4,5-dimethyl-2-thiazyl)-2,5-diphenyl-2H-tetrazolium bromide (MTT; 2 mg/ml) was added and further incubated for 4 hr. The supernatant was discarded and 100 μl of dimethylsulfoxide (DMSO) was added. Absorbance was read at 570 nm with a TecanSunrise ELISA plate reader. The control group consisted of cells without compounds and is referred to as 100% of viable cells. IC50 was determined using Prism software.
(§4) All compounds have weak effect on cell cytotoxicity. The predictive utility of cell based cytotoxicity assays to assess the potential in vivo anticancer activity of compounds with selected cancer cell lines is well established in the art and the use of whole cells, instead of isolated protein receptors or enzymes, provides a more reliable determination of activity. See, for example, Paull et al. (J. Nat'l Cancer Inst. 81:1088-1092, 1989); Monks et al. (J. Nat'l Cancer Inst. 83:757-766, 1991); Bandes et al. (J. Nat'l Cancer Inst. 86:770-775, 1994); and Kamate et al. (Int'l J. Cancer 100:571-579, 2002).

In data set [4] the test system is peripheral blood mononuclear leukocytes (PBML). Briefly: PBML DNA synthesis ([3H]-thymidine). The format is cell-based. The following applies: Homo sapiens, Leukocyte, 48 hr.
From the text: as §1, §2

Data set [5] has as its system PC-3 human prostate carcinoma cell. In words: MTT cytotoxicity on PC-3. It counts as cell-based. How it is done: as §3, §4
A further data set concerns the target TNFα (Homo sapiens, UniProt P01375). Briefly: TNFα-induced apoptosis in WEHI-13VAR cell line. The format is cell-based. The following applies: for inhibition at 10 µM: 1 × 10^−5 M; for inhibition at 20 µM: 2 × 10^−5 M; for inhibition at 5 µM: 5 × 10^−6 M; for inhibition at 40 µM: 4 × 10^−5 M. How it is done: Effect of compounds on TNFα-induced apoptosis was measured by a standard biological assay using WEHI-13VAR cells. These cells undergo apoptosis when they are incubated in the presence of TNFα and actinomycin D. 2×10^4 WEHI-13VAR cells were incubated in RPMI supplemented with 1% sodium pyruvate and 10% FBS, overnight at 37° C. for cell adherence. The cells were then cultured in the presence of 1 μg/ml of actimomycin D ([…]) and 0.04 nM TNFα with or without compounds at 37° C. After 16 hr to 24 hr, 50 μl of a solution of 2 mg/ml of MIT was added to each well and the plate was then incubated for 4 hr at 37° C. Only viable cells metabolize MTT to form formazan salt, which is detectable by the measurement of absorbance at 570 nm. After the incubation, the plate was inverted to remove medium and dead cells. 150 μDMSO was added to each well to stop the reaction and solubilize the formazan salt. Optical density was read on a Bio-Tek EL 800 UV microplate reader. A decrease in the optical density is direct evidence of cell apoptosis induced by TNFα. Compounds were also compared to the activity of an anti-TNFα neutralizing antibody.

The test system of data set [6] is peripheral blood mononuclear leukocytes (PBML). Briefly: PBML cytotoxicity (MTT). It counts as cell-based, human. The following applies: 48 hr.
From the text: as §1, §2

A further data set is described as follows: PBML cytotoxicity (MTT). It counts as cell-based, human. The following applies: human, resting PBML.
From the text: as §1, §2

The next data set has as its system B16F10 melanoma. In words: Primary B16F10 melanoma tumor in mice. It counts as in vivo. The following applies: C57BL/6 mice, IV on day 14, 16, 18; FIG. 2A/2B. How it is done:
Female 6-8 week old C57BL/6 mice were injected intradermally on day 0 with 50 μl of 3.75×10^4 viable B16F10 melanoma cells from ATCC (source of cell culture, Dr. I. J. Fidler). On day 14, tumors reached […] and animals were randomized for treatments. Animals were then injected IV with saline (negative control) or compound (5 mg/kg, 25 mg/kg, or 50 mg/kg) on day 14, day 16, and day 18 or 10 mg/kg doxorubicin (positive control) on day 14. Mice were sacrificed on day 29. Body weight and tumor volume were recorded. Serial tumor volume was obtained by bi-dimensional diameter measurements with calipers, using the formula 0.4 (a×b^2) where “a” was the major tumor diameter and “b” the minor perpendicular diameter. An antitumor effect can be quantitated by T/C, which is calculated as (Treated tumor volume/Control tumor volume)×100%.

Data set [7] concerns NHDF (normal human dermal fibroblast). In words: MTT cytotoxicity on NHDF. The format is cell-based. How it is done: as §3, §4
Setting [8] is: PWM stimulated PBML, read-out: Protein Synthesis PWM.
[9] abbreviates: con A stimulated PBML, read-out: Protein Synthesis Con A.
[10] abbreviates: resting PBML, read-out: Protein Synthesis Resting.
Where [11] appears, read: PWM stimulated PBML, read-out: RNA Synthesis PWM.
Setting [12] is: resting PBML, read-out: RNA Synthesis Resting.
[13] abbreviates: 24 hr culture, read-out: IC50 of 24-hour culture P815.
[14] abbreviates: 72 hr culture, read-out: IC50 of 72-hour culture P815.
Setting [15] is: PWM stimulated PBML, read-out: DNA Synthesis PWM.
The mark [16] stands for this setting: con A stimulated PBML, read-out: DNA Synthesis Con A.
[17] abbreviates: resting PBML, read-out: DNA Synthesis Resting.
Where [18] appears, read: 24 hr culture, read-out: IC50 of 24-hour culture PC-3.
Setting [19] is: 72 hr culture, read-out: IC50 of 72-hour culture PC-3.
[20] abbreviates: PWM stimulated PBML, read-out: Cytotoxicity PWM.
Setting [21] is: con A stimulated PBML, read-out: Cytotoxicity Con A.
Where [22] appears, read: 24 hr culture, read-out: IC50 of 24-hour culture NHDF.
Setting [23] is: 72 hr culture, read-out: IC50 of 72-hour culture NHDF.

pIC50: −log10 of the molar value. Like-named read-outs stand apart in the source and are kept apart here.

Sequence of TNFα (P01375 77-233 limits assumed, species assumed): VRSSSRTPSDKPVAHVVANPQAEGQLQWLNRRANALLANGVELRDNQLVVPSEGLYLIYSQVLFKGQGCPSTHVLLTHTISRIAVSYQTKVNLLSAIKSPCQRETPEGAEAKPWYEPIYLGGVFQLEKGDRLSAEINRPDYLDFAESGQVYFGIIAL

As usually defined, the inhibition is the percentage by which the read-out fell short of the control. A low value points to a weak effect. As usually defined, the IC50 is the concentration that inhibits the measured activity by half. The low end stands for greater potency, the high end for weaker potency. Regarding `NCCCCCNc1nc(NCCc2ccc(O)cc2)nc(Nc2cccc(F)c2)n1` [Compound I], the pIC50 is 5.00 in data set [1] (setting [8]); 5.36 in data set [1] (setting [9]); less than 5.00 in [1] (setting [10]); 5.66 in data set [2] (setting [11]); 5.17 in data set [2] (setting [12]); 4.47 in data set [3] (setting [13]). Besides, the pIC50 was 5.40 in [3] (setting [14]); 5.55 in data set [4] (setting [15]); 5.43 in data set [4] (setting [16]); less than 5.00 in [4] (setting [17]); 4.31 in data set [5] (setting [18]); 4.93 in data set [5] (setting [19]). Moreover, the pIC50 is less than 5.00 in data set [6] (setting [20]), less than 5.00 in [6] (setting [21]), 4.25 in data set [7] (setting [22]) and 4.79 in data set [7] (setting [23]). The compound also had an inhibition at 10 µM against TNFα of 33.1%. For the same compound, at TNFα, the inhibition at 20 µM is 58.9%. The same compound displayed an inhibition at 5 µM on TNFα of 17.9%. This compound yielded an IC50 at 48 h in the data set “PBML cytotoxicity (MTT)” of more than 10 µM. Further, the “T/C (treated/control tumor volume)” value in the data set on B16F10 melanoma is “around 80%”.

For the compound `NCCCCCNc1nc(NCCc2ccc(O)cc2)nc(Nc2ccc(F)cc2)n1` [Compound V], the pIC50 in data set [1] (setting [8]) is less than 5.00; in data set [1] (setting [9]), less than 5.00; in data set [1] (setting [10]) it was less than 5.00; in [2] (setting [11]), 5.35; in [2] (con A stimulated PBML, read-out: RNA Synthesis Con A) it was 5.22; in data set [2] (setting [12]), 5.13. For the same compound, the pIC50 in data set [3] (setting [13]) was 4.63; in [3] (setting [14]), 5.12; in [4] (setting [15]) it was 5.21; in data set [4] (setting [16]) it was 5.10; in data set [4] (setting [17]), less than 5.00; in data set [5] (setting [18]), 4.36. Moreover, the pIC50 in data set [5] (setting [19]) is 4.57; in [6] (setting [20]), less than 5.00; in data set [6] (setting [21]), less than 5.00; in data set [7] (setting [22]) it was 4.10; in [7] (setting [23]) it was 4.34. On TNFα, this compound displayed an inhibition at 10 µM of 22.2%. Moreover, the inhibition at 20 µM at TNFα worked out at 51.9%. For the same compound, at 40 µM the inhibition on TNFα was 75.9%. The compound further came in with an inhibition at 5 µM against TNFα of 8.2%. Moreover, the IC50 at 48 h in the data set “PBML cytotoxicity (MTT)” was more than 10 µM. The “T/C (treated/control tumor volume)” value in the data set on B16F10 melanoma is on record as less than 40%.

`NCCCCCNc1nc(NCCc2ccc(S(N)(=O)=O)cc2)nc(Nc2cccc(F)c2)n1` [Compound II]: the pIC50 was 5.24 in [1] (setting [8]); 5.19 in [1] (setting [9]); less than 5.00 in [1] (setting [10]); 5.96 in data set [2] (setting [11]); 5.24 in data set [2] (setting [12]); 4.18 in data set [3] (setting [13]). The pIC50 in data set [3] (setting [14]) is 5.80; in data set [4] (setting [15]) it was 5.77; in data set [4] (setting [16]) it was 5.54; in data set [4] (setting [17]) it was less than 5.00; in data set [5] (setting [18]), 4.49; in data set [5] (setting [19]), 4.73. Moreover, the pIC50 was less than 5.00 in data set [6] (setting [20]), less than 5.00 in [6] (setting [21]), less than 4.00 in data set [7] (setting [22]) and 4.54 in data set [7] (setting [23]). The same compound displayed an inhibition at 10 µM against TNFα of 64.2%. At 20 µM the inhibition against TNFα was 83.8%. This compound had an inhibition at 40 µM against TNFα of 78.9%. The same compound registered an inhibition at 5 µM on TNFα of 45.2%. This compound displayed an IC50 at 48 h in “PBML cytotoxicity (MTT)” of more than 10 µM. The “T/C (treated/control tumor volume)” value in the data set on B16F10 melanoma is listed as “around 80%”.

These data come from patent US8258295B2, “Triazine derivatives, compositions containing such derivatives, and methods of treatment of cancer and autoimmune diseases using such derivatives” (Prometic Biosciences Inc., priority 2007, dated 2012).
